ChEMBL document CHEMBL4017449, “Inhibition of Malassezia globosa carbonic anhydrase with phenols” (Bioorg Med Chem, 2017)

Columns and labels:
[1] = Inhibition of Malassezia globosa recombinant beta-carbonic anhydrase preincubated for 15 mins prior to testing measured for 10 to 100 secs by phenol red-based stopped-flow CO2 hydration assay
[2] = biological target: Carbonic anhydrase 1 (Homo sapiens, UniProt P00915); assay: Inhibition of human recombinant carbonic anhydrase 1 preincubated for 15 mins prior to testing measured for 10 to 100 secs by phenol red-based stopped-flow CO2 hydration assay
Sequence of Carbonic anhydrase 1 (P00915 whole entry): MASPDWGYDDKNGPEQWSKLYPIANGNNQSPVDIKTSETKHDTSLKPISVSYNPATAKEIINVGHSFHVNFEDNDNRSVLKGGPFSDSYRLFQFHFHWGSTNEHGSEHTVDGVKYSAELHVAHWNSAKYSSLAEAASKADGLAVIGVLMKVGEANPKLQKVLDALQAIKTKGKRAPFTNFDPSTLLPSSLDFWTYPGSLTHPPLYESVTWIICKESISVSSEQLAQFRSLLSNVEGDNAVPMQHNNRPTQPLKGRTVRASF

[3] = biological target: Carbonic anhydrase 2 (Homo sapiens, UniProt P00918); assay: Inhibition of human recombinant carbonic anhydrase 2 preincubated for 15 mins prior to testing measured for 10 to 100 secs by phenol red-based stopped-flow CO2 hydration assay

## O=C(O)c1ccccc1O [SALICYLIC ACID]
[1]
  Ki: 6.6 µM

## Oc1ccccc1 [PHENOL]
[1]
  Ki: 65 µM

## Oc1ccc(O)cc1 [HYDROQUINONE]
[1]
  Ki: 6.3 µM

## O=C(O)/C=C/c1ccc(O)cc1 [COUMARIC ACID]
[1]
  Ki: 3.3 µM

## N#Cc1ccc(O)cc1 [4-CYANOPHENOL]
[1]
  Ki: 0.7 µM

## Oc1cccc(O)c1 [RESORCINOL]
[1]
  Ki: 6.1 µM

## OCc1ccc(O)cc1 [PARAHYDROXYBENZYL ALCOHOL]
[1]
  Ki: 6.1 µM

## CC(=O)Nc1ccc(O)cc1 [ACETAMINOPHEN]
[1]
  Ki: 2.5 µM

## O=C(O)c1c(O)cccc1O
[1]
  Ki: 5.9 µM

## Nc1ccc(O)c(Cl)c1
[2]
  Ki: 57.8 µM
[3]
  Ki: 57.5 µM
[1]
  Ki: > 100 µM

## Oc1ccc(O)c(O)c1
[2]
  Ki: > 100 µM
[3]
  Ki: > 100 µM
[1]
  Ki: 7.4 µM

## Oc1cc(F)ccc1F
[1]
  Ki: 29.7 µM

## CC(=O)Nc1nnc(S(N)(=O)=O)s1 [ACETAZOLAMIDE]
[1]
  Ki: 74 µM

## O=C(O)c1ccc(O)cc1 [PARABEN]
[1]
  Ki: 4.9 µM

## Nc1ccc(O)cc1 [4-AMINOPHENOL]
[1]
  Ki: 32 µM

## O=C(O)c1ccc(O)c(O)c1 [PROTOCATECHUIC ACID]
[1]
  Ki: 6.5 µM

## Nc1cccc(O)c1 [3-AMINOPHENOL]
[1]
  Ki: 3.9 µM

## Oc1cc(F)cc(F)c1
[1]
  Ki: 8.8 µM

## O=C(O)/C=C/c1ccc(O)c(O)c1 [CAFFEIC ACID]
[1]
  Ki: 0.6 µM

## Oc1c(F)cc(F)cc1F
[2]
  Ki: > 100 µM
[3]
  Ki: > 100 µM
[1]
  Ki: 36.4 µM

## O=C(O)c1cc(O)ccc1O [GENTISIC ACID]
[1]
  Ki: 4.5 µM

## Oc1ccccc1O [CATECHOL]
[1]
  Ki: 7 µM

## Nc1cc(O)ccc1Cl
[1]
  Ki: 44.9 µM
